# Experiments:
# [1] = type: in vitro ADME, human
# Description: Standard Franz diffusion cells (15 mm i.d., o-ring design) were manufactured by Crown Glass Inc., Somerville, N.J. The cell caps were modified with ground glass joints to fit 14/20 ground glass stoppers. A Franz diffusion cell drive console F-DCD-9 was also manufactured by Crown Glass. A Vandercamp 2500 recirculating water bath was used to maintain the cells at 37° C. Split thickness human allograph tissues (0.015 in. thickness), thigh back area, was obtained from the Tissue Transplant Bank, St. Agnes Medical Center, Philadelphia, Pa. Samples were counted in a Packard Auto-Gamma Scintillation Spectrometer.
# Sterile Saline (0.9% Sodium Chloride USP, Travenol, NDC 0338-0049-04 lot co56747), Albumin (Bovine, fraction v, Sigma A-4503 lot 127F-0877), N-Methyl-2-pyrrolidone (Aldrich 99+ % Cat No. 24,279-9 lot 04402TP), Neomycin Sulfate (Sigma N-1876 lot 66F-0151), absolute ethanol (Midwest Solvents Company of Illinois).
# Human allograph tissue, which had been stored at -70° C., was thawed and immediately mounted in a Franz type diffusion cell. The receptor chamber was filled with normal saline containing 2% albumin and 0.05% neomycin sulfate. Each cell was maintained at 37° C. and stirred at 600 rpm. After the cells had been allowed to equilibrate for 4 to 6 hours, 200 ul of a saturated ethanolic solution of 5-chloro-8-hydroxy-7-[^125I]-iodoquinoline (approx. 70 uCi, 0.44 mg) was applied to the donor side of each cell. This was immediately followed by either 200 μl of absolute ethanol for the control cells, 200 μl of 50% (w/v 3-hydroxy-N-methylpyrrolidone in ethanol or an equimolar ethanolic solution of N-methylpyrrolidone (43.1% w/v). The cells were then capped with ground glass stoppers. At various time intervals, over an 80-100 hour period, the entire contents of the receptor chamber was removed with a 10 cc syringe and placed into a vial. The receptor chamber was then refilled with fresh solution. After the last collection these vials were placed in a well-type gamma counter and counted for I-125 activity.
# At the time of dosing 200 μl of the saturated 5-chloro-8-hydroxy-7-[^125 I]-iodoquinoline solution was placed into separate vials to calculate the amount of activity (dose) applied to the skin.
# In this example, 3-hydroxy-N-methyl pyrrolidone was tested for its use as a percutaneous penetration enhancer. In vitro studies were carried out using Franz type diffusion cells. The penetration enhancing properties of 3-hydroxy-N-methylpyrrolidone was compared to N-methyl pyrrolidone, a compound known to enhance the penetration of drugs through the skin.
# For these in vitro studies radioiodinated 5-chloro-8-hydroxy-7-iodoquinoline was chosen as a model drug. This drug, known as Clioquinol USP, is currently marketed by Ciba (Ciba Pharmaceutical Company, 556 Morris Avenue, Summit, N.J. 07901), as a topical antibacterial/antifungal agent trade named Vioform™. […] This radiolabeled marker is conveniently used to follow the penetration of the drug through the skin.
# Franz diffusion cells are designed to mimic in vivo conditions. A finite dose of drug is applied to the stratum corneum side of the skin and penetration is followed by analyzing for the drug in the receptor phase underneath. In these studies the amount of drug crossing the skin barrier is estimated by counting total radioactivity in the receptor phase.
# In a preliminary study, the transdermal absorption of Clioquinol was evaluated in the presence of 3-hydroxy-N-methylpyrrolidone, N-methylpyrrolidone, and in the absence of enhancer. An ethanolic solution of [I-131]-Clioquinol was applied to 3 cells followed by either ethanol (control), 50% 3-hydroxy-N-methylpyrrolidone in ethanol or an equimolar solution of N-methylpyrrolidone. In FIG. 1, the percent penetration of 5-chloro-8-hydroxy-7-[^131 I]-iodoquinoline through human skin is illustrated. The amount of 5-chloro-8-hydroxy-7-[^131 I]-iodoquinolineactivity applied is equal to 100%.
# The study was repeated using I-125 labeled Clioquinol. […]
# [2] = cited from earlier work
# [3] = Metabolism of N-methylpyrrolidone, metabolite excreted in urine
# Text: As pointed out above, a penetration enhancer is a chemical compound which, when included in a transdermal formulation, affects the skin of a human by increasing permeability of the skin to allow more of a drug to be absorbed in a shorter period of time. The penetration enhancer is normally contained in a formulation, called a transdermal composition, in combination with the appropriate drug to be delivered and other known components of the formulation. […] As mentioned herein, N-methylpyrrolidone is a known penetration enhancer. In studies leading to this invention using the prior art compound, N-methyl-2-pyrrolidone, it was discovered that a major metabolite of N-methylpyrrolidone which is excreted in the urine is 3-hydroxy-N-methyl-2-pyrrolidone. […] Further, 3-hydroxy-N-methylpyrrolidone is a "softer" xenobiotic to the body because no energy will be expended in metabolic processes after the compound's absorption into the systemic circulation. Also, in view of the apparent safety of N-methylpyrrolidone, its major metabolite, 3-hydroxy-N-methylpyrrolidone, would be expected to have an even lower toxicity.
# [4] = animal and human experiments; cited from earlier work
"amount of Clioquinol penetrating the skin, times greater than with N-methylpyrrolidone [1]","amount of Clioquinol penetrating the skin, times higher than the control [1]","amount of I-131 Clioquinol penetrated, times greater than the control [1]","amount of I-131 Clioquinol penetrated, times more than with N-methylpyrrolidone [1]",effectiveness in enhancing the absorption of drugs (conclusion in words) [1],percent of Clioquinol absorbed in the presence of enhancer [1],"percent penetration of I-125 labeled Clioquinol through human skin (absorbed), with enhancer [1]","percent penetration of [I-131]-Clioquinol through human skin (absorbed), with enhancer [1]","percent penetration of I-125 labeled Clioquinol through human skin (absorbed), control [1]","percent penetration of [I-131]-Clioquinol through human skin (absorbed), control [1]","time in which the same amount of Clioquinol was absorbed, absence of enhancer [1]",major metabolite excreted in the urine [3],SMILES,relative order of enhancement of Clioquinol penetration [1],absorption through the skin ([2]; reason for choice as model drug),irritation or sensitization potential [4],penetration enhancement ([2]; literature)
1.3 times,1.8 times,3.9 times,1.5 times,more effective than N-methylpyrrolidone,19%,40.0%,10.2%,,,,,"CN1CCC(O)C1=O (stereo not shown) [3-hydroxy-N-methylpyrrolidone, 3-hydroxy-N-methyl-2-pyrrolidone]",3-hydroxy-N-methylpyrrolone >N-methylpyrrolone>control,,,
,,,,,,,,19.5%,2.6%,85 h,,"Oc1c(I)cc(Cl)c2cccnc12 [Clioquinol, 5-chloro-8-hydroxy-7-iodoquinoline]",,absorbed very slowly through the skin,,
,,,,,,27.8%,6.5%,,,,3-hydroxy-N-methyl-2-pyrrolidone,"CN1CCCC1=O [N-methylpyrrolidone, N-methyl-2-pyrrolidone]",N-methylpyrrolone>control,,very little irritation or sensitization potential,effective penetration enhancer
